Data published in US8633313B2, “Heterocyclic compounds and their uses” (Amgen Inc., priority 2009, dated 2014).

How the values were obtained:
p110δ = target: T1, p110δ (Homo sapiens, UniProt O00329); details: cited from earlier work
T1 sequence (O00329 1-1044): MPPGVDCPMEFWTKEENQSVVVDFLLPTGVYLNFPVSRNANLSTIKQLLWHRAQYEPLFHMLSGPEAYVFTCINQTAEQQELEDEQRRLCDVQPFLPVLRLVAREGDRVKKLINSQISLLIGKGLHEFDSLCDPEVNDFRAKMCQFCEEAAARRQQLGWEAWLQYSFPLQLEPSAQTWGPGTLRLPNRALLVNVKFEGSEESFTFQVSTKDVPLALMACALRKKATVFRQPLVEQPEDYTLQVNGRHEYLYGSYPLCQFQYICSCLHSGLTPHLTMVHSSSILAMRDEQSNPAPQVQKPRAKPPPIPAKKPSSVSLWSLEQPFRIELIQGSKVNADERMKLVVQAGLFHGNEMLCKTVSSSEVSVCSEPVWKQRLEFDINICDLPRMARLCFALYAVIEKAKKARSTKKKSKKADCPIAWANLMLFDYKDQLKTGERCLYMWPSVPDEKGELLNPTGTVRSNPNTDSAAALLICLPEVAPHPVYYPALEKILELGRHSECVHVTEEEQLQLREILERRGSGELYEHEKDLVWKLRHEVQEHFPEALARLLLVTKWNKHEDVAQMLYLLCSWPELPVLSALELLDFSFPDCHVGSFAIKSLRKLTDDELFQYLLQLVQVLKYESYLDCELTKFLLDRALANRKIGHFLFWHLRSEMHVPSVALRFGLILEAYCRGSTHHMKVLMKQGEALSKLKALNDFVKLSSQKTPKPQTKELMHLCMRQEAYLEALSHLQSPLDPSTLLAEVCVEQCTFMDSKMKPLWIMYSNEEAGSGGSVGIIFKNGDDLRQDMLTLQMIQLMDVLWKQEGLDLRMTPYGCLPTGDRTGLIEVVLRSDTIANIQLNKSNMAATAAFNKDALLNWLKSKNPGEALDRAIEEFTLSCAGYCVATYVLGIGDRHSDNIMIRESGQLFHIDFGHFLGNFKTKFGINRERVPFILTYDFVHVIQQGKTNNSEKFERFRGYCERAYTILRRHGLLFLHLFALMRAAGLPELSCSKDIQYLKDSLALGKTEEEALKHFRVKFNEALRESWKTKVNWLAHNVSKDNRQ

protein kinases = details: cited from earlier work
[1] = test system: ovalbumin-induced airway inflammation; details: cited from earlier work
PI3K delta = target: T2, PI3K delta (Homo sapiens, UniProt O00329); assay: In vitro enzyme assay, PI3K delta biochemical potency; details: comparison of the two separated enantiomers
T2 construct: Full length p110 subunits of PI3k α, β and δ, N-terminally labeled with polyHis tag; polyHis (N); made in house; host or cells: Sf9 insect cells (baculovirus)
Protocol: Full length p110 subunits of PI3k α, β and δ, N-terminally labeled with polyHis tag, were coexpressed with p85 with Baculo virus expression vectors in sf9 insect cells. P110/p85 heterodimers were purified by sequential Ni-NTA, Q-HP, Superdex-100 chromatography. Purified α, β and δ isozymes were stored at −20° C. in 20 mM Tris, pH 8, 0.2M NaCl, 50% glycerol, 5 mM DTT, 2 mM Na cholate. Truncated PI3Kγ, residues 114-1102, N-terminally labeled with polyHis tag, was expressed with Baculo virus in Hi5 insect cells. The γ isozyme was purified by sequential Ni-NTA, Superdex-200, Q-HP chromatography. The γ isozyme was stored frozen at −80° C. in NaH2PO4, pH 8, 0.2M NaCl, 1% ethylene glycol, 2 mM β-mercaptoethanol.
Assays were performed in 25 μL with the above final concentrations of components in white polyproplyene plates (Costar 3355). Phospatidyl inositol phosphoacceptor, PtdIns(4,5)P2 P4508, was from Echelon Biosciences. The ATPase activity of the alpha and gamma isozymes was not greatly stimulated by PtdIns(4,5)P2 under these conditions and was therefore omitted from the assay of these isozymes. Test compounds were dissolved in dimethyl sulfoxide and diluted with three-fold serial dilutions. The compound in DMSO (1 μL) was added per test well, and the inhibition relative to reactions containing no compound, with and without enzyme was determined. After assay incubation at rt, the reaction was stopped and residual ATP determined by addition of an equal volume of a commercial ATP bioluminescence kit (Perkin Elmer EasyLite) according to the manufacturer's instructions, and detected using a AnalystGT luminometer.

[2] = test system: rheumatoid arthritis model; details: in vivo; cited from earlier work
[3] = test system: systemic lupus erythematosis model; details: in vivo; cited from earlier work

T2 sequence (P27986 whole entry partner, one chain of several): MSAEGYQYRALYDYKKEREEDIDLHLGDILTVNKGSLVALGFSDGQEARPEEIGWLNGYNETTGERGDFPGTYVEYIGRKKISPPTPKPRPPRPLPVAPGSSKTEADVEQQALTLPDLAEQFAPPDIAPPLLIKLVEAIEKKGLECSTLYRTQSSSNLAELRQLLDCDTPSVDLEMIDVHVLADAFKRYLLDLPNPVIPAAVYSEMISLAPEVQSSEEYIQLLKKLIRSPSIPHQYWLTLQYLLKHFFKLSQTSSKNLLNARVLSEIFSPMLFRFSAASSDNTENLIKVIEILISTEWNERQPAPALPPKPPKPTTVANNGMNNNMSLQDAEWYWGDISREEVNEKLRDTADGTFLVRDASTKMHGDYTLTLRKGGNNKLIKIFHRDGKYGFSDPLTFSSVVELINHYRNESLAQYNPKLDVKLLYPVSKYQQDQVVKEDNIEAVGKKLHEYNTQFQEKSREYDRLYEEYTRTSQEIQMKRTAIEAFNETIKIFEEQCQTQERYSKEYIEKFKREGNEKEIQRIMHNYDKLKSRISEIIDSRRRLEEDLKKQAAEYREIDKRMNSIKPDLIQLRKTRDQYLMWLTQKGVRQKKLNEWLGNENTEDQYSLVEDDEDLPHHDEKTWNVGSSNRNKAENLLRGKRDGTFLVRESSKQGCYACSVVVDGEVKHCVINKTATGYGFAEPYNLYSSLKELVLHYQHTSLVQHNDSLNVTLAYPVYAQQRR

| PI3K delta biochemical potency, one isomer relative to the other (PI3K delta) | SMILES | other results |
| --- | --- | --- |
| more potent | C[C@H](Nc1ncnc(N)c1C#N)c1nc2cccnc2cc1-c1ccccc1 (single isomer, unassigned; isomer 4) [Example 4 S-isomer] |  |
| less potent | C[C@@H](Nc1ncnc(N)c1C#N)c1nc2cccnc2cc1-c1ccccc1 (single isomer, unassigned; isomer 4) [Example 4 R-isomer] |  |
| more potent | C[C@H](Nc1ncnc(N)c1C#N)c1cc2ncccc2nc1-c1cc(F)cc(F)c1 (single isomer, unassigned; isomer 4) [Example 3 S-isomer] |  |

Continued, compound first:

| SMILES | PI3K delta biochemical potency, one isomer relative to the other (PI3K delta) | other results |
| --- | --- | --- |
| Cc1ccccc1-n1c(Cn2cnc3c(N)ncnc32)nc2cccc(C)c2c1=O [IC87114] |  | inhibition of p110δ (p110δ): high nanomolar range (triple digit); activity against any protein kinases tested (protein kinases): no activity; inflammation and disease in a murine model of asthma [1]: significantly ameliorate inflammation and disease |
| C[C@@H](Nc1ncnc(N)c1C#N)c1cc2ncccc2nc1-c1ccccc1F (single isomer, unassigned; isomer 4) [Example 2 R-isomer] | less potent |  |
| C[C@@H](Nc1ncnc(N)c1C#N)c1cc2ncccc2nc1-c1cc(F)cc(F)c1 (single isomer, unassigned; isomer 4) [Example 3 R-isomer] | less potent |  |
| O=C1NC(=O)/C(=C\c2ccc3nccnc3c2)S1 [AS 605240] |  | efficacy in a mouse model of rheumatoid arthritis [2]: efficacious; onset of disease in a model of systemic lupus erythematosis [3]: delay onset of disease |
| C[C@H](Nc1ncnc(N)c1C#N)c1cc2ncccc2nc1-c1ccccc1F (single isomer, unassigned; isomer 4) [Example 2 S-isomer] | more potent |  |
